Reference: PubChem BioAssay AID256 (DTP/NCI, 2004)
Several values for one entry are separate records, joined by “and”; a condition that tells them apart may be missing. Identical values can stand only once. Toxic doses and inconclusive results are not listed. The calls were made as follows: active = survival T/C of 150% or more; inactive = T/C below 125% in these data.

System: CD2F1 mice, L1210 leukemia ip, survival T/C
Experiment: NCI In Vivo Anticancer Drug Screen. Data for tumor model L1210 Leukemia (intraperitoneal) in CD2F1 (CDF1) mice
Conditions: higher = longer survival
Outline: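 Ratio T/C, where T is the treated-group value and C the vehicle-dosed control value, from mice implanted with a transplantable tumor.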

[1] = endpoint: mean survival time, dose: 50.0 mg/kg/injection, schedule: Q01DX009 (ip), vehicle: saline with Tween-80
[2] = endpoint: mean survival time, dose: 100.0 mg/kg/injection, schedule: Q01DX009 (ip), vehicle: saline with Tween-80
[3] = endpoint: mean survival time, dose: 200.0 mg/kg/injection, schedule: Q01DX009 (ip), vehicle: saline with Tween-80
[4] = endpoint: mean survival time, dose: 100.0 mg/kg/injection, schedule: Q01DX001 (ip), vehicle: Klucel (hydroxypropylcellulose) (HPC)
[5] = endpoint: mean survival time, dose: 200.0 mg/kg/injection, schedule: Q01DX001 (ip), vehicle: Klucel (hydroxypropylcellulose) (HPC)
[6] = endpoint: mean survival time, dose: 400.0 mg/kg/injection, schedule: Q01DX001 (ip), vehicle: Klucel (hydroxypropylcellulose) (HPC)
[7] = endpoint: mean survival time, dose: 100.0 mg/kg/injection, schedule: Q01DX001 (ip), vehicle: saline with Tween-80
[8] = endpoint: mean survival time, dose: 100.0 mg/kg/injection, schedule: Q04DX002 (ip), vehicle: saline with Tween-80
[9] = endpoint: mean survival time, dose: 200.0 mg/kg/injection, schedule: Q01DX001 (ip), vehicle: saline with Tween-80
[10] = endpoint: mean survival time, dose: 200.0 mg/kg/injection, schedule: Q04DX002 (ip), vehicle: saline with Tween-80
[11] = endpoint: mean survival time, dose: 400.0 mg/kg/injection, schedule: Q01DX001 (ip), vehicle: saline with Tween-80
[12] = endpoint: mean survival time, dose: 400.0 mg/kg/injection, schedule: Q04DX002 (ip), vehicle: saline with Tween-80
[13] = endpoint: mean survival time, dose: 50.0 mg/kg/injection, schedule: Q04DX002 (ip), vehicle: saline with Tween-80
[14] = endpoint: mean survival time, dose: 400.0 mg/kg/injection, schedule: Q01DX009 (ip), vehicle: saline with Tween-80
[15] = endpoint: mean survival time, dose: 25.0 mg/kg/injection, schedule: Q04DX003 (ip), vehicle: saline with Tween-80
[16] = endpoint: mean survival time, dose: 100.0 mg/kg/injection, schedule: Q04DX003 (ip), vehicle: saline with Tween-80
[17] = endpoint: mean survival time, dose: 200.0 mg/kg/injection, schedule: Q04DX003 (ip), vehicle: saline with Tween-80
[18] = endpoint: mean survival time, dose: 400.0 mg/kg/injection, schedule: Q04DX003 (ip), vehicle: saline with Tween-80

Measured: T/C

CCOC(=O)C(C#N)C1CNP(=O)(N(CCCl)CCCl)OC1 (configuration not stated)
inactive: endpoint: mean survival time, dose: 31.25 mg/kg/injection, schedule: Q01DX001 (ip), vehicle: DMSO 98 % of control | endpoint: mean survival time, dose: 62.5 mg/kg/injection, schedule: Q01DX001 (ip), vehicle: DMSO 98 % of control | endpoint: mean survival time, dose: 125.0 mg/kg/injection, schedule: Q01DX001 (ip), vehicle: DMSO 100 % of control | endpoint: mean survival time, dose: 250.0 mg/kg/injection, schedule: Q01DX001 (ip), vehicle: DMSO 100 % of control | endpoint: mean survival time, dose: 500.0 mg/kg/injection, schedule: Q01DX001 (ip), vehicle: DMSO 112 % of control | endpoint: mean survival time, dose: 1000.0 mg/kg/injection, schedule: Q01DX001 (ip), vehicle: DMSO 115 % of control

CCCCCCCCCCCCNC(=O)OCCN(CCOC(=O)NCCCCCCCCCCCC)C(=O)COc1ccc(Cl)cc1
inactive: endpoint: mean survival time, dose: 100.0 mg/kg/injection, schedule: Q04DX003 (ip), vehicle: other 86 % of control | endpoint: mean survival time, dose: 200.0 mg/kg/injection, schedule: Q04DX003 (ip), vehicle: other 91 % of control | endpoint: mean survival time, dose: 400.0 mg/kg/injection, schedule: Q04DX003 (ip), vehicle: other 93 % of control

O=C(O)CN(CC(=O)O)C1CCCCC1N(CC(=O)O)CC(=O)O.[Cl][Pd][Cl] (configuration not stated)
inactive: endpoint: median survival time, dose: 10.0 mg/kg/injection, schedule: Q04DX003 (ip), vehicle: saline 103 % of control | endpoint: median survival time, dose: 20.0 mg/kg/injection, schedule: Q04DX003 (ip), vehicle: saline 100 % of control | endpoint: median survival time, dose: 40.0 mg/kg/injection, schedule: Q04DX003 (ip), vehicle: saline 103 % of control | endpoint: median survival time, dose: 80.0 mg/kg/injection, schedule: Q04DX003 (ip), vehicle: saline 103 % of control and 106 % of control | endpoint: median survival time, dose: 160.0 mg/kg/injection, schedule: Q04DX003 (ip), vehicle: saline 98 % of control

CCCCOCCOCCOCc1cc2c(cc1CCC)OCO2
inactive: endpoint: mean survival time, dose: 50.0 mg/kg/injection, schedule: Q01DX009 (ip), vehicle: Klucel (hydroxypropylcellulose) (HPC) 96 % of control | endpoint: mean survival time, dose: 100.0 mg/kg/injection, schedule: Q01DX009 (ip), vehicle: Klucel (hydroxypropylcellulose) (HPC) 89 % of control | endpoint: mean survival time, dose: 200.0 mg/kg/injection, schedule: Q01DX009 (ip), vehicle: Klucel (hydroxypropylcellulose) (HPC) 100 % of control

C/C=C/CC1CCCCC1C (configuration not stated)
inactive: [1] 96 % of control | [2] 96 % of control | [3] 108 % of control

O=C(O)C1C=CC(C(=O)O)c2ccccc21 (configuration not stated)
inactive: [4] 91 % of control | [5] 90 % of control | [6] 91 % of control

Cc1ccc(C2=CC(=O)C(c3ccc(C)cc3C)=CC2=O)c(C)c1
inactive: [7] 92 % of control | [8] 86 % of control | [9] 91 % of control | [10] 93 % of control | [11] 94 % of control | [12] 101 % of control

COC(=O)c1ccccc1NCCNc1ccccc1C(=O)OC
inactive: [13] 100 % of control | [10] 95 % of control | [12] 88 % of control

CSc1nc(N)nc2n[nH]nc12
inactive: [4] 97 % of control | [5] 105 % of control | [6] 103 % of control

COc1c(OC(C)=O)ccc2c1C=CCCC2=O
inactive: [1] 96 % of control | [2] 100 % of control | [3] 92 % of control

N#C/C(=C\c1cc(Br)cc(Br)c1O)c1ccc([N+](=O)[O-])cc1
inactive: [2] 103 % of control | [3] 96 % of control | [14] 94 % of control

C=COCCN1CCN(CCCN2c3ccccc3Sc3ccc(C(F)(F)F)cc32)CC1
inactive: endpoint: mean survival time, dose: 12.5 mg/kg/injection, schedule: Q04DX003 (ip), vehicle: saline with Tween-80 113 % of control | [15] 113 % of control

O=C(C(Oc1ccc(Cl)cc1)Oc1ccc(Cl)cc1)N(O)c1ccccc1OCc1ccccc1
inactive: [16] 102 % of control | [17] 96 % of control | [18] 94 % of control

O=C1C=CC(=O)N1c1cccc(N2C(=O)C=CC2=O)c1
inactive: endpoint: mean survival time, dose: 4.0 mg/kg/injection, schedule: Q01DX009 (ip), vehicle: saline 96 % of control | endpoint: mean survival time, dose: 8.0 mg/kg/injection, schedule: Q01DX009 (ip), vehicle: saline 106 % of control

OCCN1CCN(CC/C=C2\c3ccccc3Sc3ccc(Cl)cc32)CC1
inactive: endpoint: mean survival time, dose: 3.12 mg/kg/injection, schedule: Q01DX009 (ip), vehicle: saline 102 % of control | endpoint: mean survival time, dose: 6.25 mg/kg/injection, schedule: Q01DX009 (ip), vehicle: saline 116 % of control | endpoint: mean survival time, dose: 12.5 mg/kg/injection, schedule: Q01DX009 (ip), vehicle: saline 122 % of control

CCCCCCCCCCCCOc1ccc(F)cc1C
inactive: [8] 93 % of control | [10] 93 % of control | [12] 96 % of control

CCCCOC(=O)c1cccc([N+](=O)[O-])c1
inactive: [1] 93 % of control | [2] 104 % of control | [3] 105 % of control

CCNCc1ccc(OC)cc1
inactive: [15] 106 % of control | endpoint: mean survival time, dose: 50.0 mg/kg/injection, schedule: Q04DX003 (ip), vehicle: saline with Tween-80 104 % of control | [16] 93 % of control

CCCCCCCCCSCCS
inactive: [8] 96 % of control | [10] 89 % of control | [12] 100 % of control

CC(=O)OC1CCC2(C)C3=CCC4(C)C(C(C)/C=C\C(C)C(C)C)CCC4C34C=CC2(C1)C1C(=O)OC(=O)C14 (configuration not stated)
inactive: endpoint: mean survival time, dose: 50.0 mg/kg/injection, schedule: Q01DX001 (ip), vehicle: saline with Tween-80 97 % of control | [7] 91 % of control | [8] 86 % of control | [9] 95 % of control

COC1=C(OC)C(C(O)CO)OC1=O (configuration not stated)
inactive: endpoint: mean survival time, dose: 25.0 mg/kg/injection, schedule: Q01DX009 (ip), vehicle: water 93 % of control | endpoint: mean survival time, dose: 50.0 mg/kg/injection, schedule: Q01DX009 (ip), vehicle: water 89 % of control | endpoint: mean survival time, dose: 100.0 mg/kg/injection, schedule: Q01DX009 (ip), vehicle: water 100 % of control | endpoint: mean survival time, dose: 200.0 mg/kg/injection, schedule: Q01DX009 (ip), vehicle: water 94 % of control | endpoint: mean survival time, dose: 400.0 mg/kg/injection, schedule: Q01DX009 (ip), vehicle: water 100 % of control

O=c1[nH]c2ccccc2o1
inactive: endpoint: mean survival time, dose: 12.5 mg/kg/injection, schedule: Q01DX009 (iv), vehicle: methylcellulose (MC) 95 % of control | endpoint: mean survival time, dose: 25.0 mg/kg/injection, schedule: Q01DX009 (iv), vehicle: methylcellulose (MC) 90 % of control | endpoint: mean survival time, dose: 50.0 mg/kg/injection, schedule: Q01DX009 (iv), vehicle: methylcellulose (MC) 94 % of control

CC(=O)n1c2ccccc2c2ccccc21
inactive: [1] 106 % of control | [2] 109 % of control | [3] 106 % of control

O=C1C2CCN(CC2)C1CN1CCC2(CC1)C(=O)NCN2c1ccccc1 (configuration not stated)
inactive: [13] 93 % of control | [8] 112 % of control

CCCCCCOC(CN(C)C)C(Cl)(Cl)Cl (configuration not stated)
inactive: endpoint: mean survival time, dose: 12.5 mg/kg/injection, schedule: Q01DX009 (ip), vehicle: saline with Tween-80 96 % of control and 103 % of control | endpoint: mean survival time, dose: 25.0 mg/kg/injection, schedule: Q01DX009 (ip), vehicle: saline with Tween-80 96 % of control and 100 % of control | [1] 97 % of control and 100 % of control | [2] 96 % of control and 101 % of control | [3] 102 % of control and 105 % of control | [14] 105 % of control

O=C(/C=C/C(=O)OCCCl)OCCCl
inactive: [16] 104 % of control | [17] 96 % of control

CNC(=O)C1CCC(CC2CCCCC2)CC1 (configuration not stated)
inactive: [7] 93 % of control | [9] 93 % of control | [11] 102 % of control

ClCC(CCl)c1nncc2ccccc12
inactive: endpoint: mean survival time, dose: 100.0 mg/kg/injection, schedule: Q01DX001 (ip), vehicle: saline 94 % of control | endpoint: mean survival time, dose: 200.0 mg/kg/injection, schedule: Q01DX001 (ip), vehicle: saline 97 % of control | endpoint: mean survival time, dose: 400.0 mg/kg/injection, schedule: Q01DX001 (ip), vehicle: saline 93 % of control

O=[N+]([O-])c1cccc(S(=O)(=O)Nc2ccccc2Cl)c1
inactive: [2] 97 % of control | [16] 96 % of control | [3] 92 % of control | [17] 96 % of control | [14] 95 % of control | [18] 95 % of control

Cc1cccc(CN(C)C)n1
inactive: endpoint: mean survival time, dose: 100.0 mg/kg/injection, schedule: Q04DX002 (ip), vehicle: saline 105 % of control

CCOC(=O)C(N=O)C(=O)c1ccccc1 (configuration not stated)
inactive: endpoint: mean survival time, dose: 100.0 mg/kg/injection, schedule: Q01DX009 (ip), vehicle: saline sonified 95 % of control | [16] 96 % of control | endpoint: mean survival time, dose: 200.0 mg/kg/injection, schedule: Q01DX009 (ip), vehicle: saline sonified 101 % of control | [17] 95 % of control | endpoint: mean survival time, dose: 400.0 mg/kg/injection, schedule: Q01DX009 (ip), vehicle: saline sonified 92 % of control | [18] 86 % of control
